Data published in ChEMBL document CHEMBL1201862, “PubChem BioAssay data set” (2004).
The source made the active and inactive calls. Cut-off read from the data, not from the text of the source, for most assays here: actives have a measured EC50 and inactives only a lower limit.

Key:
[1] = biological target: T1, Corticotropin-releasing factor receptor 2/Corticotropin-releasing factor-binding protein (Homo sapiens, UniProt P24387+Q13324); experiment: activators of CRF receptor 2 with binding protein – uHTS hits, confirmation (AID 602473); type: functional; settings: read-out: EC50_Mean
T1 sequence (Q13324 whole entry): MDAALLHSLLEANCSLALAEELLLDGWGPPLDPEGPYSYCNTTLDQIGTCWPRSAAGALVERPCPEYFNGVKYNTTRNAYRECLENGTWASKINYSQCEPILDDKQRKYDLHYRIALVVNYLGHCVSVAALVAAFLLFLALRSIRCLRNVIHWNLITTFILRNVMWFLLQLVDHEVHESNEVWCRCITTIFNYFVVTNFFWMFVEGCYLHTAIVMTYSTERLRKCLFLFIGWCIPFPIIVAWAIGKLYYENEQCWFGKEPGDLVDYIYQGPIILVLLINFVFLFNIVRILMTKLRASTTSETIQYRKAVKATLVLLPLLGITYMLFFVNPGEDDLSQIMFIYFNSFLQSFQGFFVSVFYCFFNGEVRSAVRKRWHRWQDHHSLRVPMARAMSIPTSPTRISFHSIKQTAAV
T1 sequence (P24387 whole entry): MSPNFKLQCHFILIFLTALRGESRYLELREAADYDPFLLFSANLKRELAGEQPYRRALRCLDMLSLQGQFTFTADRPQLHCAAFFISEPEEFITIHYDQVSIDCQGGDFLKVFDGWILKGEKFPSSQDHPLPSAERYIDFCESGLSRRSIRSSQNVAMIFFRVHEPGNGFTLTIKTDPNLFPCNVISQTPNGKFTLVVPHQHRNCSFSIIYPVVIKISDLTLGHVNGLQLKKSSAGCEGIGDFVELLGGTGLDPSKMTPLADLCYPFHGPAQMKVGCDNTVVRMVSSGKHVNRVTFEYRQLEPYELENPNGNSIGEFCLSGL

Protein skinhead-1 = biological target: T2, Protein skinhead-1 (Caenorhabditis elegans, UniProt P34707); type: functional
T2 sequence (P34707 whole entry): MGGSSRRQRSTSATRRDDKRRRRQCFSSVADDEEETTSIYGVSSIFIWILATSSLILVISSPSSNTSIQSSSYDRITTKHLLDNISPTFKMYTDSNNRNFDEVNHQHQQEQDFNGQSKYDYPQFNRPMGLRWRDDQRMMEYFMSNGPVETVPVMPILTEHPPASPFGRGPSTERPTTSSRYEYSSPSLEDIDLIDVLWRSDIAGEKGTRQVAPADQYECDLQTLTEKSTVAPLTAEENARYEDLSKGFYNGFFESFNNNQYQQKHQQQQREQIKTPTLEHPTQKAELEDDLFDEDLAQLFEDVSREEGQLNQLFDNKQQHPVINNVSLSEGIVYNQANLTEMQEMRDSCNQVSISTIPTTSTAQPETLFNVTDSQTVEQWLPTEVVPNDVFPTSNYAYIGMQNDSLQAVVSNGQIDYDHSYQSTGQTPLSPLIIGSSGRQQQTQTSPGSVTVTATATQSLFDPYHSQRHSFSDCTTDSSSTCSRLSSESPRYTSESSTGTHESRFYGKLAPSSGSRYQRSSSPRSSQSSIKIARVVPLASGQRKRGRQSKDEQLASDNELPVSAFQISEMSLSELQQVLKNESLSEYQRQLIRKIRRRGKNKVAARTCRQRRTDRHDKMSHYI

[2] = Luminescence Cell-Based Dose Response HTS to Identify Inhibitors of 5'UTR Stem-Loop Driven Prion Protein mRNA Translation in H4 Neuroglioblastoma Cells. [Related pubchem assays: 1827 (Project Summary), 1813 (Primary HTS)]; type: functional
[3] = inhibitors of SNCA 5'UTR-driven reporter translation, confirmation, H4 neuroglioma cells, luminescence (AID 1988); type: functional, cell-based
[4] = biological target: T1, Corticotropin-releasing factor receptor 2/Corticotropin-releasing factor-binding protein; experiment: Dose Response confirmation of uHTS hits for small molecule antagonists of the CRF-binding protein and CRF-R2 receptor complex.; type: functional; settings: read-out: IC50_Mean
[5] = inhibitors of firefly luciferase expression or activity, dose response, H4 neuroglioma cells, luminescence (AID 1990); type: functional, cell-based
[6] = biological target: T3, RNA-binding protein pos-1 (Caenorhabditis elegans, UniProt G5EF15); experiment: inhibitors of POS-1/mex-3 RNA binding, dose response, biochemical, fluorescence polarization (AID 1964);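 note: purified POS-1 fused to maltose binding protein made in E. coli; potency of compounds blocking POS-1 binding to fluorescent RNA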
T3 sequence (G5EF15 whole entry): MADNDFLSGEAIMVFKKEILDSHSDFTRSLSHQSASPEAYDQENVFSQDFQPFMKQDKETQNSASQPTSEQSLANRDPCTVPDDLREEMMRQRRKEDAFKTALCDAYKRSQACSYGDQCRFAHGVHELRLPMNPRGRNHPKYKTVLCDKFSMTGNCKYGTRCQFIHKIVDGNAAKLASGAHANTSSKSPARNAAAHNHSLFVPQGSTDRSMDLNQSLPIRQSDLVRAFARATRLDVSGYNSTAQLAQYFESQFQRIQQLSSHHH

[7] = biological target: T4, Zinc finger protein mex-5 (Caenorhabditis elegans, UniProt Q9XUB2); experiment: MEX-5/TCR-2 RNA interaction inhibitors, dose response, biochemical, C. elegans, fluorescence polarization (AID 1960)
T4 sequence (Q9XUB2 whole entry): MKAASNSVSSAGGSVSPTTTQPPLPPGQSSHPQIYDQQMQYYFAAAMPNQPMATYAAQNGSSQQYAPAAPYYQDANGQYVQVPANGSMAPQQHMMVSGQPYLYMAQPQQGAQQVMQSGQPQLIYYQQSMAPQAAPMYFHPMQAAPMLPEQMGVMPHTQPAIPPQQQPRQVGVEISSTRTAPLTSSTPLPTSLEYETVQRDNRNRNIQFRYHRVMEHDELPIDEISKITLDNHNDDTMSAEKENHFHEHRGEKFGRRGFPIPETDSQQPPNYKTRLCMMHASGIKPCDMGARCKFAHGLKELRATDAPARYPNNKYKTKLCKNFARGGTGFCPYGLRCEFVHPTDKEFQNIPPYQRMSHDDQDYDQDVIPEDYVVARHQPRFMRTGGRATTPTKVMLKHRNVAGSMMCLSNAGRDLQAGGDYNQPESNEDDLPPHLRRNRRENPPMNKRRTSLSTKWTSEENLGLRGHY

[8] = biological target: T5, Heat shock factor protein 1 (Mus musculus, UniProt P38532); experiment: HSF1 potentiators in luciferase reporter cells, confirmation, cell-based, NIH3T3, luminescence, dose retest (AID 435004); type: functional;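 note: stress induced by proteasome inhibitor MG132 added 30 min after compound; luciferase reporter driven by HSF1 response element in NIH3T3 cells; actives raise luminescence as potentiators of the MG132 stress response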
T5 sequence (P38532 whole entry): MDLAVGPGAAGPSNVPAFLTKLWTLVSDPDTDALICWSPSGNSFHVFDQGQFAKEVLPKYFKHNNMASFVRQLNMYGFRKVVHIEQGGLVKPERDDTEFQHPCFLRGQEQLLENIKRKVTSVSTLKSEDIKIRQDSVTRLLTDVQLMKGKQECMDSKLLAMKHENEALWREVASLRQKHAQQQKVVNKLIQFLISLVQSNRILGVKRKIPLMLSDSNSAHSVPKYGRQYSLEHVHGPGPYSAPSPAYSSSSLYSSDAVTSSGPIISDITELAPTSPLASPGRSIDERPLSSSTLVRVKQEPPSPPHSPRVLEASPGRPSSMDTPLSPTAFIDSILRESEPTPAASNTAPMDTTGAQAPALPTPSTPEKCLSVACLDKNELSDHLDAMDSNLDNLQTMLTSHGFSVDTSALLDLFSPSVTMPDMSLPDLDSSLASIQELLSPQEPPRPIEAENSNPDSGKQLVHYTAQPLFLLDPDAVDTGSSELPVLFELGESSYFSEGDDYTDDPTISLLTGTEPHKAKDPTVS

BJ [9] = experiment: cells; type: functional, cell-based; settings: Homo sapiens
BJ [10] = experiment: cytotoxicity toward BJ-TERT fibroblasts, dose response, cell-based, RAS-independent, luminescence (AID 1933); type: functional; settings: Homo sapiens
BJ [11] = experiment: cytotoxicity toward BJ-TERT-LT-ST fibroblasts, dose response, cell-based, RAS-independent, luminescence (AID 1935); type: functional; settings: Homo sapiens;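 note: BJ fibroblasts immortalized with TERT plus LT and ST oncogenes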
[12] = cytotoxicity toward DRD oncogenic fibroblasts, dose response, cell-based, non-viral oncogenic, luminescence (AID 1934); type: functional; settings: Homo sapiens
[13] = cytotoxicity toward NIH3T3 fibroblasts, dose response, counter-screen, cell-based, ATP luminescence, mouse fibroblasts (AID 2010); type: functional;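 note: cells exposed to compound for about 90 hours before reading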
[14] = inhibitors of intracellular T. cruzi replication, confirmation, NIH3T3 host cells, beta-gal luminescence (AID 2044); type: functional, cell-based;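 note: intracellular parasites grown in NIH/3T3 mouse fibroblasts as host cells; luminescent beta-galactosidase reporter signal from transgenic T. cruzi replicating inside host cells; inhibitors lower the luminescence signal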
H4 = experiment: Luminescence Cell-Based Dose Response HTS to Identify Activators of 5'UTR Stem-Loop Driven Prion Protein mRNA Translation in H4 Neuroglioblastoma Cells. [Related pubchem assays: 1829 (Project Summary), 1814 (Primary HTS)]; type: functional; settings: Homo sapiens
[15] = Luminescence Cell-Based Dose Response HTS to Identify Activators of Luciferase Translation or Activity in H4 […] Cells. [Related pubchem assays: 1829 (Project Summary), 1814 (Primary HTS)]; type: functional

Compound: CCOc1ccc(-c2nc(N)ncc2Oc2cccc(OC)c2)c(O)c1
- EC50 [1]: > 53 µM (inactive)
- IC50 (Protein skinhead-1): > 100 µM (inactive)
- EC50 [2]: 16.4 µM (active)
- EC50 [3]: > 60 µM (not active)
- IC50 [4]: > 47.1 µM (inactive)
- EC50 [5]: > 120 µM (not active)

Compound: Fc1ccccc1OCCSc1nc2ccccc2o1
- IC50 (Protein skinhead-1): 36.3 µM (active)

Compound: COc1cc(/C=C2/N=C(c3ccccc3)OC2=O)c(F)cc1OCc1ccccc1
- EC50 [6]: > 300 µM (not active)
- EC50 [7]: > 300 µM (inconclusive)

Compound: Cc1cc(C(=O)N/N=C/c2ccc(-c3cccc(Cl)c3Cl)o2)[nH]n1
- EC50 [6]: 28.3 µM (active)
- EC50 [7]: 10.2 µM (active)

Compound: O=c1oc2ccccc2c(NC2CCCCC2)c1NS(=O)(=O)c1ccc(Cl)cc1
- EC50 [8]: 120 µM (active)

Compound: CCCCc1ccc(NS(=O)(=O)c2c(C)n(C)c(=O)n(C)c2=O)cc1
- EC50 [8]: > 260 µM (inactive)

Compound: O=C(CC1Sc2ccccc2NC1=O)NNc1cc(Cl)ccc1Cl (stereo unspecified)
- IC50 (Protein skinhead-1): > 100 µM (inactive)

Compound: O=[N+]([O-])c1ccc(Nc2ccc(Cl)cc2)nc1
- IC50 (Protein skinhead-1): > 100 µM (inactive)

Compound: O=c1/c(=C/c2ccccc2)sc2nnc(-c3cccs3)n12
- EC50 [8]: 23.3 µM (active)

Compound: Sc1nc(-c2ccc(Br)cc2)cn1CCc1ccccc1
- EC50 [8]: > 260 µM (inactive)

Compound: Cc1ccc(C(=O)c2cc([N+](=O)[O-])ccc2N2CCN(C)CC2)cc1
- EC50 (BJ [9]): 21.1 µM (inconclusive)
- EC50 (BJ [10]): 12.5 µM (active)
- EC50 (BJ [11]): 13.5 µM (inconclusive)
- EC50 [12]: 15.8 µM (inconclusive)

Compound: Cc1nc2nc(C)c(CCC(=O)N3CCN(c4ccccc4)CC3)c(C)n2n1
- IC50 (Protein skinhead-1): > 100 µM (inactive)

Compound: COC(=O)c1ccc(-n2c(C)cc(C(=O)COC(=O)CC3Sc4ccccc4NC3=O)c2C)cc1 (stereo unspecified)
- EC50 [6]: > 300 µM (not active)
- EC50 [7]: > 300 µM (not active)

Compound: Cc1ccc(O)c(NC(=O)Cc2ccc3ccccc3c2)c1
- EC50 [8]: 7.7 µM (active)

Compound: COc1ccc(/C=C/c2cc(C(F)(F)F)nc(O)n2)cc1OC
- EC50 [6]: > 300 µM (not active)
- EC50 [7]: > 300 µM (not active)

Compound: O=C1NC(=O)N(c2ccccc2F)C(=O)/C1=C/c1cn(CC(=O)N2CCOCC2)c2ccccc12
- EC50 [6]: > 300 µM (not active)
- EC50 [7]: > 300 µM (not active)

Compound: COc1cc(CC(=O)N(c2ccccc2)c2nc(C)cs2)cc(OC)c1OC
- EC50 [8]: > 260 µM (inactive)

Compound: Cc1cc(C)c(OCCN(C)Cc2ccccc2)c(Br)c1
- EC50 [13]: > 60 µM (not active)
- EC50 [1]: > 53 µM (inactive)
- IC50 [4]: > 47.1 µM (inactive)
- EC50 [14]: 1.68 µM (active)

Compound: CCCCCCC1CCC(C(=O)NC(CCSC)C(=O)NC(C(=O)OC)C(C)C)CC1 (stereo unspecified)
- EC50 [8]: > 260 µM (inactive)

Compound: CC1(O)C(=O)C=C2C=C(C3CC3)OC=C2C1=O (stereo unspecified)
- EC50 [6]: 41.3 µM (active)
- EC50 [7]: 17.8 µM (active)

Compound: CCC(C)NC(=O)c1nc(O)c2nnn(Cc3ccccc3Cl)c2n1 (stereo unspecified)
- EC50 [8]: > 260 µM (inactive)

Compound: O=C(CNC(=O)C1CCCCC1)Nc1ccc(F)c(Cl)c1
- EC50 [1]: > 53 µM (inactive)
- IC50 [4]: > 47.1 µM (inactive)

Compound: COc1ccc(/C=N/NC(=O)c2ccccc2NC(=O)c2ccco2)c(OC)c1
- EC50 [1]: > 53 µM (inactive)
- IC50 [4]: > 47.1 µM (inactive)

Compound: COC(=O)c1ccc(C#Cc2ccccc2)o1
- IC50 (Protein skinhead-1): > 100 µM (inactive)

Compound: CCN1CCN(Cc2c(O)ccc3c2O/C(=C\c2ccccc2)C3=O)CC1
- EC50 [6]: 30.3 µM (active)
- EC50 [7]: 57.9 µM (active)

Compound: CCN(CC)S(=O)(=O)c1cc(OC)c(C)cc1C
- EC50 [1]: > 53 µM (inactive)
- IC50 [4]: > 47.1 µM (inactive)

Compound: CCOc1ccc(Br)cc1S(=O)(=O)NC(=O)c1ccccc1
- EC50 [6]: > 300 µM (not active)
- EC50 [7]: > 300 µM (not active)

Compound: O=C(Nc1nc(-c2ccc(Cl)s2)cs1)c1ccco1
- IC50 (Protein skinhead-1): 13.7 µM (active)

Compound: O=S(=O)(Cc1cc(Sc2ccccc2)nc(-c2ccccc2)n1)c1ccccc1
- IC50 (Protein skinhead-1): > 100 µM (inactive)

Compound: CN1CCN(C(=O)c2ccccc2N(Cc2ccccc2)S(C)(=O)=O)CC1
- IC50 (Protein skinhead-1): > 100 µM (inactive)

Compound: Brc1ccc2oc(-c3cc[nH]n3)cc2c1
- IC50 (Protein skinhead-1): 80 µM (inactive)
- EC50 (H4): 93.8 µM (active)
- EC50 [15]: 0.281 µM (active)

Compound: N#CCCn1cc(C=C(C#N)C#N)c(-c2ccc(-c3ccccc3)cc2)n1
- EC50 [8]: 7.51 µM (active)
